Literature values as cited in article PMC2096654 (Purinergic Signalling, 2006).

Biological target: T1, human A3 adenosine receptor (Homo sapiens, UniProt P0DMS8)
T1 sequence (P0DMS8 1-318): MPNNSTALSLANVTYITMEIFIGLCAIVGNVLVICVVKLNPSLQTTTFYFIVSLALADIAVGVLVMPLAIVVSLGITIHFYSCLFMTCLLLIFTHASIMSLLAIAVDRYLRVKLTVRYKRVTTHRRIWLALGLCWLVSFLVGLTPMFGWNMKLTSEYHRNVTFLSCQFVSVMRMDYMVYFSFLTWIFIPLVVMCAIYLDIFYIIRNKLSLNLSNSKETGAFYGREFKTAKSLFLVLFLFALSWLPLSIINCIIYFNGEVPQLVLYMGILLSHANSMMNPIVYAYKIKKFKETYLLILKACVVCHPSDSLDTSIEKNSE
Settings: reference agonist

agonist behaviour at A3 receptor: full agonist
SMILES: CNC(=O)[C@H]1O[C@@H](n2cnc3c(NCc4cccc(I)c4)nc(Cl)nc32)[C@H](O)[C@@H]1O [Cl-IB-MECA, 2-chloro-N^6-(3-iodobenzyl)-5′methylcarboxamidoadenosine]
